Test in all cases: NCI tumour cell line growth inhibition, 48 h
The subject of test [1] is HT-29.
For test [2], the system named is OVCAR-5.
In test [3] the test system is ACHN.
Test [4] concerns MDA-MB-231.
Test [5] concerns DU-145.
The test system of test [6] is HOP-92.
In test [7] the test system is Hs-578T.
In test [8] the test system is M14.
Test [9] deals with NCI-H226.
Test [10] relates to PC-3.
For test [11], the system named is NCI-H460.
Test [12] has as its system UACC-257.
The test system of test [13] is IGROV-1.
For test [14], the system named is BT-549.
Test [15] relates to A498.
In test [16] the test system is SK-MEL-28.
The test system of test [17] is U-251.
For test [18], the system named is SNB-75.
The subject of test [19] is MCF7.

From ChEMBL document CHEMBL1201862, “PubChem BioAssay data set” (2004) come the findings set out here.

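A five-concentration, 48-hour dose response in 96-well plates underlies each endpoint, interpolated linearly between surrounding concentrations. Here, GI50 denotes the concentration required for 50% inhibition of growth.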 Active and inactive are the calls of the source. No stated cut-off is given here; in the data, active = GI50 up to about 1.1 µM and inactive = higher. Some results are limits rather than exact numbers.

Consider `CC1(CCOCc2ccccc2)NC(=O)NC1=O` (stereo not drawn), for which the GI50 in test [1], in test [2], in [3], in test [4], in [5] and in test [6] was > 100 µM (inactive) in each case. The GI50 in test [7], in test [8], in [9], in [10], in test [11] and in test [12] was > 100 µM (inactive) each time. Also, the GI50 in test [13], in test [14], in test [15], in test [16] and in [17] was > 100 µM (inactive) throughout.
Take `COc1cccc2c1CCc1cc3c(N)nc(N)nc3nc1-2`: the GI50 is 2.41 µM (inactive) in [1]; 6.92 µM (inactive) in [2]; 5.75 µM (inactive) in [3]; 3.09 µM (inactive) in [4]; 5.16 µM (inactive) in test [5]; 5.98 µM (inactive) in [18]. Also, the GI50 in test [6] was 14 µM (inactive); in test [8], 4.22 µM (inactive); in [9], 12.6 µM (inactive); in test [19] it was 6.31 µM (inactive); in test [10] it was 5.38 µM (inactive); in test [11], 4.83 µM (inactive). For the same compound, the GI50 in test [12] is 5.73 µM (inactive); in test [13], 5.86 µM (inactive); in test [14], 26.4 µM (inactive); in test [15], 9.27 µM (inactive); in test [16], 2.78 µM (inactive); in [17], 2.67 µM (inactive).
Turning to `C[C@@]12c3c4ccc(C=O)c3Oc3ccc(C=O)c(c31)Oc1c(C=O)ccc(c12)O4`, the GI50 was > 100 µM (inactive) in [1]; > 100 µM (inactive) in test [2]; > 100 µM (inactive) in test [3]; > 100 µM (inactive) in test [4]; > 100 µM (inactive) in test [18]; 0.565 µM (active) in test [6]. In addition, the GI50 in test [7], in [8], in [9], in [19], in [10] and in [11] was > 100 µM (inactive) throughout. The GI50 in [12] is > 100 µM (inactive); in test [13] it was > 100 µM (inactive); in test [14], > 100 µM (inactive); in test [15], 31.5 µM (inactive); in [16] it was > 100 µM (inactive); in test [17], > 100 µM (inactive).
For `CC(=O)c1c(N=[N+]=[N-])c2cccc3c2n(c1=O)CCC3`, the GI50 was 16.4 µM (inactive) in test [1]; 15.2 µM (inactive) in test [2]; 24.9 µM (inactive) in test [3]; 13.9 µM (inactive) in [4]; 24.8 µM (inactive) in test [18]; 31.8 µM (inactive) in test [6]. Moreover, the GI50 in test [7] was 22.9 µM (inactive); in test [8], 13.6 µM (inactive); in test [9], 22.9 µM (inactive); in [19], 19.8 µM (inactive); in [10], 17.3 µM (inactive); in test [11] it was 14.4 µM (inactive). Also, the GI50 in test [12] is 16.6 µM (inactive); in test [13] it was 20.1 µM (inactive); in [14], 20.4 µM (inactive); in test [15], 21.3 µM (inactive); in [17] it was 17.3 µM (inactive).
As to `COc1ccc(C(OCC2OC(n3ccc(NC(=O)c4ccccc4)nc3=O)CC2OP2(=S)SCCS2)(c2ccccc2)c2ccc(OC)cc2)cc1` (stereo not drawn), the GI50 is 24.7 µM (inactive) in test [1]; 36.8 µM (inactive) in [2]; 18.6 µM (inactive) in [3]; 31.1 µM (inactive) in [4]; 32.9 µM (inactive) in test [5]; 24.5 µM (inactive) in test [18]. The GI50 was 24.1 µM (inactive) in test [7]; 24.9 µM (inactive) in [8]; 34.4 µM (inactive) in test [9]; 37.1 µM (inactive) in test [19]; 17.8 µM (inactive) in test [10]; 33.6 µM (inactive) in test [11]. For the same compound, the GI50 in test [12] is 30.1 µM (inactive); in test [13] it was 33.5 µM (inactive); in test [14], 25.9 µM (inactive); in test [16], 30 µM (inactive); in test [17], 28 µM (inactive).
Regarding `COc1cc(Cc2nccc3cc(OC)c(OC)cc23)c(/N=N/N(C)C)cc1OC`, the GI50 in [1] was 10.4 µM (inactive); in test [2] it was 20.5 µM (inactive); in test [3], 15.1 µM (inactive); in [4] it was 14.4 µM (inactive); in test [5] it was 17.5 µM (inactive); in test [18], 34 µM (inactive). Also, the GI50 in test [7] is 18.4 µM (inactive); in test [8] it was 17.5 µM (inactive); in test [9] it was 20.4 µM (inactive); in [19], 14.6 µM (inactive); in test [10], 10.7 µM (inactive); in [11] it was 7.23 µM (inactive). For the same compound, the GI50 in test [12] is 20.3 µM (inactive); in test [13], 13.5 µM (inactive); in test [14], 18.2 µM (inactive); in [16], 11.2 µM (inactive); in test [17], 19.1 µM (inactive).
Turning to `CCOc1cc(NC(C)=O)ccc1C(=O)NN1C(=O)/C(=C/c2ccc(Cl)cc2)N=C1c1ccccc1`, the GI50 is 52.6 µM (inactive) in [1]; > 100 µM (inactive) in test [2]; 51.1 µM (inactive) in test [3]; 33.7 µM (inactive) in test [4]; 68.5 µM (inactive) in test [5]; 40.3 µM (inactive) in [18]. Besides, the GI50 was 33.9 µM (inactive) in test [6]; 48.5 µM (inactive) in test [8]; 42.8 µM (inactive) in [9]; 4.67 µM (inactive) in test [19]; 43.5 µM (inactive) in test [10]; 43.9 µM (inactive) in test [12]. Also, the GI50 was 18.1 µM (inactive) in [13]; 47.4 µM (inactive) in test [14]; 24.9 µM (inactive) in test [15]; > 100 µM (inactive) in test [16]; 55.8 µM (inactive) in test [17].
As to `CC(C)(C)c1ccc(O)c(C(O)c2ccccn2)c1` (stereo not drawn), the GI50 in [1] was > 100 µM (inactive); in test [2], 31.5 µM (inactive); in [3], > 100 µM (inactive); in test [4] it was > 100 µM (inactive); in [5], > 100 µM (inactive); in test [18], > 100 µM (inactive). Besides, the GI50 in test [7] is 91.2 µM (inactive); in [9], 85.1 µM (inactive); in test [19], 77.8 µM (inactive); in test [10], 86.1 µM (inactive); in test [11], 48.5 µM (inactive); in test [13] it was > 10 µM (inactive). Moreover, the GI50 in test [14] is > 100 µM (inactive); in test [16] it was > 100 µM (inactive); in test [17] it was 46.1 µM (inactive).
For the compound `CCCCCCNC(=O)CCC(NC(=O)c1ccc(N(C)Cc2cnc3nc(N)nc(N)c3n2)cc1)C(=O)NCCCCCC` (stereo not drawn), the GI50 was 88.7 µM (inactive) in test [1]; > 100 µM (inactive) in [2]; > 100 µM (inactive) in test [3]; 34.8 µM (inactive) in [4]; 89.3 µM (inactive) in [5]; > 100 µM (inactive) in test [18]. Moreover, the GI50 in test [6] was 98.2 µM (inactive); in test [8] it was 73.8 µM (inactive); in test [9] it was > 100 µM (inactive); in test [19], 18.3 µM (inactive); in test [10], > 100 µM (inactive); in test [11], 47.2 µM (inactive). Also, the GI50 in [12] was 37.1 µM (inactive); in test [13], 16.2 µM (inactive); in test [14], > 100 µM (inactive); in [15] it was > 100 µM (inactive); in test [16], > 100 µM (inactive); in test [17] it was > 100 µM (inactive).
On to `Cc1cc(O)no1` [HYMEXAZOL], for which the GI50 in test [1] is > 100 µM (inactive); in test [2], > 100 µM (inactive); in test [3], 18.9 µM (inactive); in [4], > 100 µM (inactive); in test [18], > 100 µM (inactive); in test [6] it was > 100 µM (inactive). Also, the GI50 in [7], in test [8], in [9], in test [19], in test [10] and in test [11] was > 100 µM (inactive) each time. Also, the GI50 in test [12], in [13], in [14], in test [16] and in test [17] was > 100 µM (inactive) each time.
`O=C(O)c1cc2ccccc2c(Cc2c(O)c(C(=O)O)cc3ccccc23)c1O` [PAMOIC ACID]: the GI50 in test [1], in test [2], in [3], in test [4], in [5] and in [6] was > 100 µM (inactive) in each case. The GI50 in [7], in test [8], in [9], in [10], in [11] and in test [12] was > 100 µM (inactive) in each case. Also, the GI50 in test [13], in [14], in [15], in test [16] and in test [17] was > 100 µM (inactive) throughout.
